ChEMBL document CHEMBL1151009, “Synthesis and pharmacological evaluation of combined Thromboxane receptor antagonists/thromboxane synthase inhibitors: Pyridine-containing amino-prostanoids” (Bioorg Med Chem Lett, 1991)

Columns and labels:
Thromboxane-A synthase = biological target: T1, Thromboxane-A synthase (Homo sapiens, UniProt P24557); experiment: In vitro TXA2 synthase antagonism through inhibition of collagen induced thromboxane-A2 production in human citreated whole blood; type: functional, tissue-based
T1 sequence (P24557 whole entry): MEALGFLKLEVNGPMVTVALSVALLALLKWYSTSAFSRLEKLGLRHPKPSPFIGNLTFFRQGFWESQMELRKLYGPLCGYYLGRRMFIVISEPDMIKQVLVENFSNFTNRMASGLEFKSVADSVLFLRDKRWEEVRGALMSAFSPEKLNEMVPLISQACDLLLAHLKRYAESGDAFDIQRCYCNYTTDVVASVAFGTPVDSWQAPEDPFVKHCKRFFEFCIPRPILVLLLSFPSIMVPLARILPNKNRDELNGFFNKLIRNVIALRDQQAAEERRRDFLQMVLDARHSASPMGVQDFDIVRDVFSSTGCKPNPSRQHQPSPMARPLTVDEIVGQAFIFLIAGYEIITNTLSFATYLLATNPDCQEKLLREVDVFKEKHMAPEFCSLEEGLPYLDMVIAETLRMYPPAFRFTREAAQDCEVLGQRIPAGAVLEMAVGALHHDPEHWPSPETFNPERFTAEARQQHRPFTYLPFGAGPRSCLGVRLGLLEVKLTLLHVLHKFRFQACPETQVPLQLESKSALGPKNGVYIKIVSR

Thromboxane A2 receptor [1] = biological target: T2, Thromboxane A2 receptor (Homo sapiens, UniProt P21731); experiment: In vitro thromboxane A2 receptor antagonism through inhibition of U-46619-induced platelet aggregation in human whole blood.; type: functional, tissue-based; conditions: read-out: pA2 (converted)
T2 sequence (P21731 whole entry): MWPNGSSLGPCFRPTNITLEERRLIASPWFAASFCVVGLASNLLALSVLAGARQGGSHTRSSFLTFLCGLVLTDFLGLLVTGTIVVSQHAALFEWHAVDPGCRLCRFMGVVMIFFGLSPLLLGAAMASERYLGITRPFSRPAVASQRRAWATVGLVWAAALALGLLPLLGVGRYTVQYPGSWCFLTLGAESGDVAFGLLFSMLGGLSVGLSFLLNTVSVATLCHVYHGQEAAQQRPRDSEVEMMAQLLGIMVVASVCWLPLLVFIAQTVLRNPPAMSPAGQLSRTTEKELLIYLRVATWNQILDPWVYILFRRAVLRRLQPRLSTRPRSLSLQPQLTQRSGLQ

Thromboxane A2 receptor [2] = biological target: T3, Thromboxane A2 receptor (Rattus norvegicus, UniProt P34978); experiment: In vitro thromboxane A2 receptor antagonism through inhibition of U-46619-induced contraction of rat isolated thoracic aortic strip; type: functional; conditions: read-out: pA2 (converted)
T3 sequence (P34978 whole entry): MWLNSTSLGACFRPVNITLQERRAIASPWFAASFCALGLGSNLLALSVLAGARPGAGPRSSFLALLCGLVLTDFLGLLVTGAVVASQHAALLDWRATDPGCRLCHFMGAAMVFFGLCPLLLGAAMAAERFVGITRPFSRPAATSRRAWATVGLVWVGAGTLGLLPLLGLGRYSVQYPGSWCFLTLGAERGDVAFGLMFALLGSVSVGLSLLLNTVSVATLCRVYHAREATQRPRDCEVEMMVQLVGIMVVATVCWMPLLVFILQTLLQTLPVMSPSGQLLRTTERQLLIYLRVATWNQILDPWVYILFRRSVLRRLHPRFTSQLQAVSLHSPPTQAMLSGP

Row | IC50 (Thromboxane-A synthase) [nM] | Kb (Thromboxane A2 receptor [1]) [nM] | Kb (Thromboxane A2 receptor [2]) [nM] | Compound
1 | 100 | 3.98 | 10 | CCCCc1ccncc1-c1ccc(CO[C@@H]2CC[C@H](N3CCCCCC3)[C@H]2OC/C=C\CCC(=O)O)cc1
2 | 1580 | 6.31 | 20 | Cc1cnccc1-c1ccc(CO[C@@H]2CC[C@H](N3CCCCCC3)[C@H]2OC/C=C\CCC(=O)O)cc1
3 | – | 15800 | 6310 | O=C(O)CCCC/C=C(\c1ccccc1)c1cccnc1 [(E)-ISBOGREL]
4 | > 10000 | 3.16 | 3.16 | O=C(O)CC/C=C\CO[C@H]1[C@H](OCc2ccc(-c3cccnc3CO)cc2)CC[C@@H]1N1CCCCCC1
5 | 631 | 10 | 79.4 | O=C(O)CC/C=C\CO[C@H]1[C@H](OCc2ccc(-c3ccncc3)cc2)CC[C@@H]1N1CCCCCC1
6 | 631 | 12.6 | 39.8 | O=C(O)CC/C=C\CO[C@H]1[C@H](OCc2ccc(-c3cccnc3)cc2)CC[C@@H]1N1CCCCCC1
7 | – | 3.16 | 15.8 | O=C(O)CC/C=C\CO[C@H]1[C@H](OCc2ccc(-c3ccncc3CO)cc2)CC[C@@H]1N1CCCCCC1
8 | 1580 | 3.16 | 12.6 | O=C(O)CC/C=C\CO[C@H]1[C@H](OCc2ccc(-c3cnccc3CO)cc2)CC[C@@H]1N1CCCCCC1
9 | 398 | 6.31 | 15.8 | CCc1cnccc1-c1ccc(CO[C@@H]2CC[C@H](N3CCCCCC3)[C@H]2OC/C=C\CCC(=O)O)cc1
10 | 31.6 | 3980 | 1260 | O=C(O)CCCCO/N=C(/c1cccnc1)c1cccc(C(F)(F)F)c1 [RIDOGREL]
11 | > 10000 | 3.16 | 3.16 | O=C(O)CC/C=C\CO[C@H]1[C@H](OCc2ccc(-c3cnccc3CCO)cc2)CC[C@@H]1N1CCCCCC1
12 | > 10000 | 6.31 | 25.1 | O=C(O)CC/C=C\CO[C@H]1[C@H](OCc2ccc(-c3cncc(CO)c3)cc2)CC[C@@H]1N1CCCCCC1
13 | > 10000 | 3.16 | 3.16 | CC(C)(C)c1ccncc1-c1ccc(CO[C@@H]2CC[C@H](N3CCCCCC3)[C@H]2OC/C=C\CCC(=O)O)cc1
14 | 100 | 2.51 | 31.6 | Cc1ccncc1-c1ccc(CO[C@@H]2CC[C@H](N3CCCCCC3)[C@H]2OC/C=C\CCC(=O)O)cc1
15 | 100 | 2.51 | 31.6 | CCCc1ccncc1-c1ccc(CO[C@@H]2CC[C@H](N3CCCCCC3)[C@H]2OC/C=C\CCC(=O)O)cc1
16 | 2510 | 1 | 10 | CCc1ccncc1-c1ccc(CO[C@@H]2CC[C@H](N3CCCCCC3)[C@H]2OC/C=C\CCC(=O)O)cc1
